The values below come from a melting point compilation (Tetko et al.; mined from patent text by program, amines drawn as free bases though some values may be those of a salt).

As to `COCc1cc2c(C(=O)Nc3ccnn3C)ccc(OC)c2o1`, the melting point lay within 148 to 150 °C.
Regarding `CN1CCN(C2=Nc3cc(F)ccc3Nc3nn(C)nc32)CC1`, the melting point lay within 195 to 197 °C.
As for `Cc1nc(NC(=O)c2cnn3c(C(F)(F)F)cc(-c4ccc(C(F)(F)F)cc4)nc23)sc1S(=O)(=O)NCCO`, the figure is 166 °C.
With `COc1c(CN2C(=O)c3ccccc3C2=O)c2c(c3c1OC(C)(C)C3)C(c1ccccc1)=NC(C)(C)C2` the figure was 193 to 195 °C.
As for `CCOCc1nc2c(N)nc(C)c(C)c2n1CCOCc1ccccc1`, the figure is 107 to 108 °C; as for `CCc1cc(=O)n(CCC(C(=O)NO)N(C)S(=O)(=O)c2ccc(Oc3ccccc3)cc2)c(=O)[nH]1` (stereo not given), 177 to 179 °C.
`COC(=O)C1=C(C)Nc2ccccc2NC1c1cccc([N+](=O)[O-])c1` (stereo not given) registered a melting point of 124 to 126 °C.
As for `CCOc1ccc2c(c1)n(C1CCCCC1)c(=O)n2Cc1ccc(C(=O)NC(C)(C)CN(C)C)cc1OC`, the figure is 161 °C.
With `CSc1nc2cc(C(F)(F)F)ccc2n1NC(C)=O` the figure was 175 to 178 °C.
With `CN1CCC(Sc2ccccc2)C(C#N)C1` (stereo not given) the figure was 114 °C.
`O=C(OC(Cc1c[nH]cn1)C(=O)O)C(Cc1ccccc1)Cc1ccccc1` (stereo not given) came in with a melting point of 210 °C.
With `Cc1nc(Cl)c(C(=O)O)cc1Cl`, the melting point lay in the range of 123 to 138 °C.
As for `CN1CCN(CC(=O)NC2(c3ccc(Cl)cc3)C(=O)Nc3cc(Cl)cc(Cl)c32)CC1` (stereo not given), the figure is 248 to 251 °C.
With `CCN(Cc1ccccc1)c1ccc(C2OC(=O)c3cc(N(C)C)ccc32)cc1` (stereo not given) the figure was 123 to 125 °C; with `Cc1cc2c(C#N)ccc(C#N)c2cc1C`, 225 to 227 °C.
For `COC(=O)c1ncn(C2CCCCO2)c1CC#N` (stereo not given), the melting point lay in the range of 98 to 99 °C.
`CCCCCCCCCCCCCCC(CCCCC(=O)O)CCCCC(=O)O` came in with a melting point of 48 to 50 °C.
With `Cn1cc2snnc2n1` the figure was 125 to 127 °C; with `CCOC(=O)Cn1c(=O)[nH]c2ccc(C(=O)c3c(-c4ccccc4)c(OC)c4ccccn34)cc2c1=O`, 221 °C.
`CCCN(Cc1csc(C(C)C)n1)C(=O)N[C@H](C(=O)N[C@@H](Cc1ccccc1)C[C@H](O)[C@H](Cc1ccccc1)NC(=O)OCc1cncs1)C(C)C` registered a melting point of 62 to 64 °C.
With `COC(=O)[C@H]1[C@H](N2C(=O)c3ccccc3C2=O)C(=O)N1Cc1ccc(OC)cc1OC` (relative stereo) the figure was 186 to 188 °C.
With `CNC(=O)c1c(Nc2ccccc2[N+](=O)[O-])c(C)nn1C` the figure was 223 to 225 °C; with `O=S(=O)(CCl)c1ccc(-n2cnnn2)cc1`, 168 to 172 °C.
With `CCCc1nc2c(N)nc3ccccc3c2n1CCCCNS(=O)(=O)c1ccccc1` the figure was 159 to 161 °C.
Molecule `CCCC[C@H](NC(=O)[C@H](CC(C)C)NC(=O)c1cc(F)c(F)c(F)c1F)C(=O)CSCc1ccco1` gave a melting point of 107 to 108 °C.
In turn, `COc1ccc(S(=O)(=O)N2C(=O)C(O[Si](C)(C)C)(c3ccccc3F)c3cc(Cl)ccc32)c(OC)c1` (stereo not given) showed a melting point of 184 to 186 °C.
With `CCNC(=O)c1cc(C(F)(F)F)ccc1[Si](C)(C)C` the figure was 101 to 102 °C; with `CCCCC1(CC)CSC2=CC=CC3=CNCC32C(c2ccccc2)=N1` (stereo not given), 145 to 146 °C; with `N#CC1CCN(c2ccc3c(NC(=O)CC4CCCCC4)c(Cl)ccc3n2)CC1`, 235 to 237 °C.
With `CC(C)(c1cc(Cl)cc([N+](=O)[O-])c1O)c1cc(Cl)cc([N+](=O)[O-])c1O` the figure was 188 °C.
With `FN(F)C12CC3CC(CC(C3)C1)C2` the figure was 113 to 115 °C; with `CC(Cc1cccc([N+](=O)[O-])c1)(NC(=O)CN1C(=O)c2ccccc2C1=O)c1ccccc1` (stereo not given), 172 to 173 °C; with `Cc1cccc(S(=O)(=O)OS(=O)(=O)c2cccc(C)c2C)c1C`, 115 to 130 °C.
The molecule `NC(=O)c1c[nH]c2c1ccc1c3ccccc3[nH]c12` registered a melting point greater than 300 °C.
For the molecule `CC(C)[C@@H]1CC[C@@H](C)C[C@H]1OC(=O)N1C(=O)O[C@@H](C(F)(F)F)[C@@H]1C(C)C`, the melting point was 80 to 82 °C.
With `CSc1ccc(Oc2ccc([N+](=O)[O-])cc2)c(C)c1` the figure was 81.6 to 84.4 °C; with `Cc1nc(-c2ccc3cnc(Nc4ccc(N5CCN(C)CC5)cc4)nn23)cn1C`, 242 to 244 °C; with `CCc1nccn1CC1CC2c3cccc4[nH]cc(c34)CC2N(C)C1` (stereo not given), 232 to 237 °C.
As for `CCc1nc2cc(C(=O)NC)c(Cl)cc2n1-c1ccc(CCNC(=O)NS(=O)(=O)c2ccc(C)cc2)cc1`, the figure is 122 to 135 °C; as for `O=c1c2cc(F)ccc2ncn1CCN1CC=C(c2c[nH]c3ccccc23)CC1`, 138 °C; as for `CCOCc1nc2c(N)nc3cc(N4CCCC4=O)cnc3c2n1CC(C)C`, 198 °C.
`CC(C)(C)c1cc2c(cc1Br)C=C(C(=O)O)C(C(F)(F)F)O2` (stereo not given) displayed a melting point of 199 to 200 °C.
As for `Cc1cc(O)c(S(=O)(=O)Cc2ccc(F)cc2)c(=O)o1`, the figure is 180 to 182 °C.
With `COCc1ccc(-c2cn(-c3cc(C(=O)OC)c(NO)cc3C(F)(F)F)cn2)cc1` the figure was 252 to 257 °C.
With `CC1(C)NC(=O)N(CC(CS(=O)(=O)c2ccc(-c3cccc(CC#N)c3)cc2)N(O)C=O)C1=O` (stereo not given) the figure was 186 to 189 °C.
In the case of `O=C1CCN(c2ncc(-c3ccc(Cl)cc3Cl)nn2)CC1`, the melting point lay within 120 to 122 °C.
With `CCOC(=O)Cc1ccc(NC(=O)C(C)C)cc1` the figure was 92.5 to 93.5 °C.
`CCCc1nc2ccc(C#N)cc2n1Cc1ccccc1Cl` showed a melting point of 124 to 126 °C.
In the case of `COc1cc2c(cc1Nc1ncc(Cl)c(Nc3ccccc3S(=O)(=O)N(C)C)n1)CCNC(=O)C2`, the melting point was in the range of 190 to 195 °C.
Molecule `CCN1CCc2ccc(Nc3ncc(C(F)(F)F)c(Nc4ccc(N5CCOCC5)cc4OC)n3)cc2CC1` gave a melting point of 167 to 170 °C.
With `CC(C(=O)O)c1ccc(-n2cccn2)cc1` (stereo not given) the figure was 137 to 138 °C.
With `O=C(O)c1ccc(OCC2CCCCC2)c([N+](=O)[O-])c1` the figure was 200 to 202 °C; with `COc1cccc(-n2c(=O)oc3ccc(-c4ccc(F)cc4F)cc3c2=O)c1`, 160 to 161 °C.
As for `Nc1cc(Cl)nc(C(=O)O)c1C=O`, the figure is 146 to 148 °C.
`COc1cccc(C2=CCN(c3ccc(Cl)nn3)CC2)c1` came in with a melting point of 126 °C.
As for `CC(C)(C)NC(=O)NC1(C#N)CCCC1`, the figure is 206 to 207 °C; as for `COc1ccc(-c2cc3ccccc3[nH]2)cc1NC(=S)Nc1cc(Cl)cc(Cl)c1`, 199 to 201 °C; as for `O=C(CN1CCC(n2c(=O)[nH]c3ccccc32)CC1)Nc1ccc(C2CCCCC2)cc1`, 130 to 132 °C.
With `Nc1cc(Nc2ccccc2)nc2c1ncn2C1OC(CO)C(O)C1O` (stereo not given) the figure was 192 to 195 °C; with `CC(C)C1=C(C#N)C(c2cccc(C#N)c2Br)c2c[nH]nc2N1` (stereo not given), greater than 250 °C; with `CCC(=O)OCC(OC(=O)CC)c1nc2c(C(F)(F)F)cccc2c(O)c1C(=O)Nc1nccs1` (stereo not given), 206 °C.
As for `CN(C)c1ccc(NC(=O)N(C[C@H]2CC[C@H](CN(C(=O)Nc3ccc(N(C)C)cc3)C3CCCCCC3)CC2)C2CCCCCC2)cc1`, the figure is 159 to 164 °C; as for `Cc1c(NC(=O)c2ccc(OC[C@@H]3CCCO3)cc2)ccc2c1cc(CNCC1CCOCC1)n2C`, 166 to 167 °C.
`O=C(c1ccccc1)N1CC2CC=Cc3cccc1c32` (stereo not given) returned a melting point of 89 to 91 °C.
As for `CCOC(=O)c1c(C(F)(F)F)nc(C(F)(F)Cl)c(C(=O)OC)c1Cl`, the figure is 57.5 to 59.5 °C.
With `COc1cccc(OC)c1-c1ccc(CC(NC(=O)Nc2ccccc2S(=O)(=O)c2ccccc2)C(=O)O)cc1` (stereo not given) the figure was 119 °C; with `CCC(C(=O)c1ccc(O)cc1)c1ccccc1` (stereo not given), 127 to 129 °C; with `O=S1(=O)C=Cc2cc(Br)ccc2O1`, 140 to 142 °C.
As for `Cc1cc(OC/C=C/c2ccc(F)cc2)c(C)c(C)c1NC=O`, the figure is 196 to 198 °C; as for `CCOC(CN1C(=O)C2=C(c3cccs3)N(CC(OCC)OCC)C(=O)C2=C1c1cccs1)OCC`, 167 to 169 °C; as for `Nc1ccc2c(Cl)cc(Cl)nc2n1`, 213 to 216 °C.
`N#Cc1cc(-c2c3ccccc3cc3sc4ccccc4c23)ccc1OCC(=O)O` returned a melting point of 235 to 236 °C.
As for `CCN(CC)CCCC(=O)c1ccc2c(c1)Cc1cc(C(=O)CCCN(CC)CC)ccc1O2`, the figure is 63 to 65 °C; as for `CON1Cc2c(cc3ccc4c(c3c2-c2ccc3c(c2)OCO3)OCO4)C1=O`, 214 to 216 °C.
With `O=S1(=O)OC[C@H]2CCCN21` the figure was 45 to 46 °C; with `c1ccc(-c2cccc(-n3cnc4cc(-n5cccc5)ccc43)c2)nc1`, 147 to 148 °C; with `Cc1ccccc1C(CCC(=O)O)Oc1cc(OCc2cccc(CCC(=O)O)c2)ccc1C#N` (racemic), 136 to 137 °C.
Molecule `CCCCC(=O)c1c(-c2ccc3c(C)c(OCC(=O)O)ccc3c2)oc2ccccc12` registered a melting point of 153 to 155 °C.
With `Cn1cc(-c2cc(-c3ccc4[nH]ccc4c3)ccn2)n(-c2ccc(C(C)(C)C#N)cc2)c1=O` the figure was 238 °C.
`O=C(O)CCc1cn(Cc2ccc(OCc3ccccc3)cc2)cc1-c1ccccc1` yielded a melting point of 130 to 131 °C.
With `Oc1cccc(NCc2ccccc2)n1` the figure was 158 to 162 °C.
`CCCCOc1cc(CCS(=O)(=O)NC(=O)OCc2ccccc2)n(Cc2ccc(Cl)cc2Cl)n1` returned a melting point of 92 to 95 °C.
With `CNC(=O)COC(=O)N1CCN(CCCc2cccc(-c3cccc(Cl)c3)c2)CC1` the figure was 82 to 85 °C.
As for `CC(C)(C)NCC(O)c1cc(Cl)c(N)c(C#N)c1` (stereo not given), the figure is 125 to 133 °C; as for `Cn1cc(-c2cccc(Cl)c2)c(=O)c(-c2cccc(Cl)c2)c1`, 164 to 167 °C.
